Laboratory results as given in patent US6342523B1, “3,4,5-trisubstituted aryl nitrone compounds, pharmaceutical compositions containing the same and methods for treating inflammation” (Centaur Pharmaceuticals, Inc., priority 1998, dated 2002).

Columns and labels:
[1] = biological target: T1, cyclooxygenase 1 (COX-1) (Ovis aries, UniProt P05979); test: Inhibition of COX-1 (arachidonic acid incubation, PGE2 formation by malondialdehyde quantitation); settings: 300 μM; COX-1 derived from ram seminal vesicles
T1 sequence (P05979 25-600): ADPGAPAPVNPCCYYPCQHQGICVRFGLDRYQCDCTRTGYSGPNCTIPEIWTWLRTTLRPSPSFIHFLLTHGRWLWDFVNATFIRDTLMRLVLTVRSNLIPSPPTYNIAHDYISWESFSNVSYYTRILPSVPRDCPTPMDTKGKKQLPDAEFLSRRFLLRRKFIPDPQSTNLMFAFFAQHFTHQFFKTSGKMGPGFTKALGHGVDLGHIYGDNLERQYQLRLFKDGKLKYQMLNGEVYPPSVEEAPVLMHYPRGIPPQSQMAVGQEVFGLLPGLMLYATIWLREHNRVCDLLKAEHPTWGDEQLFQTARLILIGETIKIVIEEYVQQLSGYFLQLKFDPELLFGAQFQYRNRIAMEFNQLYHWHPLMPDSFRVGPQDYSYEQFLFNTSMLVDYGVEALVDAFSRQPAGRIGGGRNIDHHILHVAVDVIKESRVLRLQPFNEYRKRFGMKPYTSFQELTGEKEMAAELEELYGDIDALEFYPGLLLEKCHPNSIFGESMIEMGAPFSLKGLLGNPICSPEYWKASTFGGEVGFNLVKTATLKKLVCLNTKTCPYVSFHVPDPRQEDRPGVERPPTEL
Method: (§1) The inhibition of COX-I was measured by incubating arachidonic acid with COX-1 derived from ram seminal vesicles. The inhibition of COX-2 was measured by incubation of arachidonic acid with COX-2 derived from sheep placenta. […] In each assay, the formation of prostaglandin E2 (PGE2) was measured by spectrophotometric quantitation of malondialdehyde.

[2] = biological target: T2, cyclooxygenase 2 (COX-2) (Ovis aries, UniProt P79208); test: Inhibition of COX-2 (arachidonic acid incubation, PGE2 formation by malondialdehyde quantitation); settings: 300 μM; COX-2 derived from sheep placenta
T2 sequence (P79208 17-603): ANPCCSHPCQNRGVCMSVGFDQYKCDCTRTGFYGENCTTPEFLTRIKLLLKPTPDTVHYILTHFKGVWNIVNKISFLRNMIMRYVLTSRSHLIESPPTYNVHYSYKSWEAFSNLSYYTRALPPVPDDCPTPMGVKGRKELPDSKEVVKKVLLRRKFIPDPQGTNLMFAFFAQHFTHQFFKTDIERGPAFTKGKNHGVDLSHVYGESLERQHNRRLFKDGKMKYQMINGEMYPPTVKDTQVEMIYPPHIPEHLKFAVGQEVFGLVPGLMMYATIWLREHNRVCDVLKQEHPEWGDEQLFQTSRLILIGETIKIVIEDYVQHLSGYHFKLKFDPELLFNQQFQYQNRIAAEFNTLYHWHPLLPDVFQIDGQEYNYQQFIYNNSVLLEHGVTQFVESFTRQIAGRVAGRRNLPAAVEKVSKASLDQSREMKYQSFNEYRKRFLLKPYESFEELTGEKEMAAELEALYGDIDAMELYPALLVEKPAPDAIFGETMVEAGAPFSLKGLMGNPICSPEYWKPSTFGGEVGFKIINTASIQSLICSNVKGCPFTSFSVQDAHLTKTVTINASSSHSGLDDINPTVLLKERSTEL
Method: as §1

[3] = test system: adjuvant-induced footpad edema; test: Adjuvant assay (adjuvant-induced footpad edema); type: in vivo; settings: Male Lewis rats; 3 mg/kg, po; dosing day 14 to day 21 post-adjuvant
Method: This assay is a model for chronic inflammation. See, for example, […], “Rat Adjuvant Arthritis: A Model of Chronic Inflammation,” Pharmacological Methods in the Control of Inflammation, 363-380 (1989) and references cited therein. In this assay, Male Lewis rats weighing between 180-220 g were lightly anesthetized with an ip injection of 30 mg/kg of sodium pentobarbital (50 mg/mL). Desiccated Mycobacterium butyrium (Difco, 20 mg/mL) suspended in mineral oil was injected (50 μL) at both sides of the base of the tail under the skin. A line was tattooed on both rear paws at 5 mm above the angle of the ankle. The paw volumes, under the line, were measured by volume displacement using a plethysmonmeter (Ugo Basile) at the day of adjuvant injection (day 0) and on day 14. On day 14, animals with paw volumes equal to the mean of paw volumes±SD were randomized into treatment groups. Rats which fell outside±1 SD were not used in the experiment. […] Dosing began on day 14, and continued until final assessment on day 21 post-adjuvant injection. […] This group has a slightly positive volume increase when paw volumes on day 21 are subtracted from day 0 values due to growth of the rat. […] Compounds reducing paw volume by at least about 30% compared to vehicle control group were considered effective in this test.

In the case of `CC(=O)Oc1c(C(C)(C)C)cc(/C=[N+](\[O-])C(C)(C)C)cc1C(C)(C)C` [Example 1, α-(4-Acetoxy-3,5-di-tert-butylphenyl)-N-tert-butylnitrone], the “Inhibition of COX-1” value [1] is reported as “did not significantly affect” and the “Inhibition of COX-2” value [2] is reported as “did not significantly affect”.

Work on `CCC(=O)Oc1c(C(C)(C)C)cc(/C=[N+](\[O-])C(C)(C)C)cc1C(C)(C)C` [Example 8, α-(4-propionyloxy-3,5-di-tert-butylphenyl)-N-tert-butylnitrone] yielded a melting point of 202 to 222 °C.

For `CC(=O)Oc1c(C(C)(C)C)cc(/C=[N+](/C)[O-])cc1C(C)(C)C` [Example 9, α-(4-acetoxy-3,5-di-tert-butylphenyl)-N-methylnitrone], the melting point was 136 to 143 °C.

For `COc1ccc2c(c1)c(CC(=O)O)c(C)n2C(=O)c1ccc(Cl)cc1` [indomethacin], the “Paw volume compared to vehicle controls” value [3] was “significantly reduced paw volume”.
